System: patient suffering from hyperhidrosis
Assay: Oral sulpiride given to a patient suffering from hyperhidrosis
Format: in vivo, human
Conditions: 200 mg daily
Method: A dose of 200 mg Sulpiride was administered to a patient suffering from hyperhidrosis.

With CCN1CCCC1CNC(=O)c1cc(S(N)(=O)=O)ccc1OC (stereo not drawn) [Sulpiride, N-[(1-ethylpyrrolidin-2-yl)methyl]-2-methoxy-5-sulfamoyl-benzamide] the “duration of reduction in sweating” value was “lasted for as long as the patient took a daily pill”, the effect on sweating was “reduction in sweating” and the “onset of reduction in sweating after beginning taking the drug” value was 72 h.
